Assays:
regulatory T cells = experiment: Regulatory T cells in allo-BM + splenocyte transplanted mice; assay type: in vivo, mouse
Procedure: (§1) Allogeneic Bone marrow transplant: Recipient Balb/c mice were irradiated twice 3.75Gy (T=0 and T=4 h) in an X-ray source irradiator before transplantation at T=8 h. Treatment with antibiotics (Nopil) and analgesic (Dafalgan) was supplemented to drinking water 4 days before injection. Irradiated recipient Balb/c mice were transplanted with 5 million T cell depleted bone marrow+1 million splenocytes. Allogeneic recipient animals were treated with vehicle or 6-(4-tert-butylphenoxy)pyridin-3-amine subcutaneously at 20 mg/kg for two days immediately after allo-BM transplant, given a 10 days treatment holiday to recover body weight loss due to whole body irradiation and then treatment continued at 20 mg/kg. […] Animals were monitored for symptoms of GvHD development (severe body weight loss, alopecia and diarrhea.

IFNG [1] = experiment: Cytokine profiling in human patient plasma (MSD): IFNG; assay type: in vivo; settings: human patients, day 29 on treatment vs baseline pre-treatment
Procedure: (§2) Cytokine profiling in human plasma samples: Plasma samples from patients treated with 6-(4-tert-butylphenoxy)pyridin-3-amine were collected and stored at −80° C. until analysed. Cytokine and chemokine profiling was performed using MesoScale Discovery (MSD) platform and three assay panels: 1) Pro-inflammatory panel human, 2) Human IL-6 assay S-Plex, 3) Human IL-10 assay S-Plex.

[2] = tested on: irradiated Balb/c mice transplanted with TCD-BM + splenocytes from C57Bl6 mice (GvHD); experiment: Allogeneic bone marrow transplant GvHD model; assay type: in vivo, mouse
Procedure: as §1
Graft vs host disease (GvHD) is an example of alloimmune disease that develops following allo-hematopoetic stem cell transplant (allo-HSCT) in humans. The activity of 6-(4-tert-butylphenoxy)pyridin-3-amine and a calcineurin inhibitor Cyclosprin A was investigated in a mouse model of GvHD following allo-bone marrow transplant. In this model, T cell depleted bone marrow cells (TCD-BM)+splenocytes from C57Bl6 mice were transplanted into irradiated Balb/c mice.

Treg cells [3] = experiment: Treg expansion in activated mouse splenocytes in vitro; assay type: cell-based; settings: mouse splenocytes stimulated with anti-CD3 and anti-CD28 for 96 hours; FIG. 1
Procedure: Mouse splenocytes were harvested and single cell suspension stimulated in vitro with anti-CD3 and anti-CD28 antibodies for 96 hours. Treatment with 6-(4-tert-butylphenoxy)pyridin-3-amine, during the same interval of time, caused an expansion of immunosuppressive regulatory T cells (Tregs). Each bar represents the mean±SD (N=3 replicates).
(§3) Human PBMCs and mouse splenocyte in vitro stimulation and treatment: Human peripheral blood mononuclear cells (PBMCs) and mouse splenocytes from donors were stimulated in vitro with anti-CD3 and anti-CD28 antibodies. The stimulated cells were simultaneously treated with compounds for 96 hours. The T cells were profiled for different cell surface and intracellular markers and proliferation by flow cytometry.
(§4) Flow cytometry analysis: Flow cytometry analysis was performed to quantify cell surface and intracellular markers expression and measure cell division index.
Viability staining: Cells were transferred into a 96 well conical bottom plate and washed with serum free PBS1×. Cells were incubated with Zombie NIR (Biolegend #423105)+FC block ([…]) for 20 minutes at 4° C. […]
(§5) FOXP3 nuclear staining: Cells were fixed and permeabilized with Foxp3 Transcription Factor Staining Buffer Set (ThermoFisher #00-5523) for 20 minutes at room temperature. […] Results are finally analysed with the software FlowJo v.10.7.1.

Treg cells [4] = experiment: Treg expansion in activated human PBMC cultures (anti-CD3/anti-CD28, flow cytometry); assay type: cell-based; settings: anti-CD3 and anti-CD28, 96 hours, control 0%
Procedure: as §3, §4
Viability staining: Cells were transferred into a 96 well conical bottom plate and washed with serum free PBS1×. Cells were incubated with Zombie NIR (Biolegend #423105)+FC block ([…]) for 20 minutes at 4° C. Cells were washed with staining medium (SM) (1×HBSS, 2.5 mM EDTA, 2% NBS
Cell surface marker staining: Cells were stained with antibodies against cell surface markers (CD3, CD4, CD8, CD25, Biolegend or ThermoFisher) for 20 minutes at 4° C. Cells were washed with SM before continuing with nuclear staining.
as §5

activated CD4 T cells = experiment: Cell proliferation assay (Cell trace violet), activated CD4 T cells; assay type: cell-based; settings: control 0%
Procedure: (§6) Following PBMC injections, mice were treated with vehicle or 6-(4-tert-butylphenoxy)pyridin-3-amine or Ruxolitinib starting at day 0. Mice were monitored from 60-85 days for symptoms of GvHD and scored according to a standard clinical scoring system for GvHD (Naserian et al., 2018) (see table 1) and a cumulative clinical score was obtained by addition of clinical score for individual parameters. A maximum score of 6 is measured when reaching endpoint. Cell proliferation assay: The effect of compounds on T cell proliferation was quantified using Cell trace violet (CTV). PBMCs/splenocytes were incubated with CTV for 20 minutes at 37° C. Cells were washed twice with RPMI complete medium. CTV labelled cells were stimulated with anti-CD3 and anti-CD28 antibodies and treated with control or compounds and cultured at 37° C. for 96 hours. The cell division index was measured by flow cytometry.
as §4

IL-17 = experiment: Cytokine analysis in allogeneic bone marrow transplant (LEGENDplex): IL-17; assay type: in vivo, mouse; settings: allo-BM+splenocyte transplanted mice, day 36, vs vehicle; FIG. 6
Procedure: as §1
(§7) Cytokine analysis in allogeneic Bone marrow transplant: The recipient animals were bled on day 36 and blood plasma was extracted to determine inflammatory cytokine concentration (IFNγ, IL-6, IL-17a) by LEGENDplex™ multiplexed assay.

IL-6 [5] = experiment: Cytokine profiling in human patient plasma (MSD): IL-6; assay type: in vivo; settings: human patients, day 3 on treatment vs baseline pre-treatment
Procedure: as §2

IFNG [6] = experiment: ELISA of supernatant from activated human PBMC cultures: IFNG; assay type: cell-based; settings: control 0%
Procedure: as §3
(§8) ELISA assay: Supernatant from activated human PBMC cultures described above was separated from cells at the end of culture time. Key cytokines (IL-6, IFN-γ, IL-17) were quantified using sandwich ELISA reagents set (Diaclone) following manufacturer's instruction manual.

IFNG [7] = experiment: Cytokine analysis in allogeneic bone marrow transplant (LEGENDplex): IFNG; assay type: in vivo, mouse; settings: allo-BM+splenocyte transplanted mice, day 36, vs vehicle; FIG. 6
Procedure: as §1, §7

activated CD8 T cells = experiment: Cell proliferation assay (Cell trace violet), activated CD8 T cells; assay type: cell-based; settings: control 0%
Procedure: as §6, §4

IL-6 [8] = experiment: ELISA of supernatant from activated human PBMC cultures: IL-6; assay type: cell-based; settings: control 0%
Procedure: as §3, §8

IL-12a mRNA = experiment: Quantitative RT-PCR of splenocyte mRNA after in vivo dosing: IL-12a; set-up: species or system mouse; settings: in vivo treated mice vs vehicle; p<0.01; FIG. 4
Procedure: FIG. 4: In vivo 6-(4-tert-butylphenoxy)pyridin-3-amine dosing leads to a downregulation of pro-inflammatory cytokine IL-12a mRNA in mouse spleen. […] Each bar represents the mean±SD (N=3 replicates). (**) p<0.01
In vivo treatment of mice and pharmacodynamic response: Mice experiments were performed in compliance with authorization to perform animal experiments (VD3323). Briefly, 6-8 weeks old wild type C57Bl6 mice were subcutaneously or intraperitoneally dosed with vehicle or compounds for different durations. Mice were sacrificed, spleens were harvested 24 hours post-last dosing. Splenocytes were analyzed for cell surface and intracellular markers expression using flow cytometry. RNA expression analyses were performed using quantitative real time PCR.

CC(C)(C)c1ccc(Oc2ccc(N)cn2)cc1 [6-(4-tert-butylphenoxy)pyridin-3-amine]
regulatory T cells (regulatory T cells): expansion of regulatory T cells | Percentage downregulation of IFNG in blood plasma (IFNG [1]): 90% (day 29 on treatment) | prevention of GvHD development (in words) ([2]; allo-bone marrow transplant, compared with vehicle): prevents development of GvHD | treated animals that developed GvHD ([2]; allo-bone marrow transplant, 60% of vehicle treated animals died due to GvHD, FIG. 5): 20% | animals remained GvHD free ([2]; allogeneic bone marrow+splenocyte transplantation, vehicle 40%, FIG. 5): 80% | expansion of Treg cells (Treg cells [3]): expansion of Treg cells | expansion of Treg cells (Treg cells [4]): 112% | Percentage inhibition of CD4 T cells (proliferation) (activated CD4 T cells): 81% | IL-17 in blood plasma (IL-17): downregulation | Percentage downregulation of IL-6 in blood plasma (IL-6 [5]): 57% (day 3 on treatment) | Percentage downregulation of IFNG (IFNG [6]): 10% | IFNG in blood plasma (IFNG [7]): downregulation | Percentage inhibition of CD8 T cells (proliferation) (activated CD8 T cells): 56% | Percentage downregulation of IL-6 (IL-6 [8]): 61% | IL-12a transcript in splenocytes (IL-12a mRNA): downregulation

From patent US20240269120A1, “Method for Treating an Autoimmune and Inflammatory Disease” (Cellestia Biotech AG, priority 2021, published 2024)
